≈ marks a conversion by molar mass, not a printed value.
Tests used:
Format in all cases: functional
Trichoplusia ni = experiment: Insecticidal activity against cabbage looper assessed as mortality per larva after 5 days
Tetranychus urticae = experiment: Insecticidal activity against two-spotted spinder mites assessed as count of live mites after 4 days with low light condition; conditions: 96 h
Spodoptera exigua = experiment: Insecticidal activity against beet armyworm assessed as mortality per larva after 5 days
Myzus persicae = experiment: Insecticidal activity against green peach aphid assessed as count of nonwinged stage live aphid after 72 hrs with 24 hrs of photoperiod prior to grading
Bemisia tabaci = experiment: Insecticidal activity against sweet potato whitefly assessed as larval survival after 13 days; conditions: 312 h
Aphis gossypii = experiment: Insecticidal activity against cotton aphid assessed as count of nonwinged stage live aphid after 72 hrs with 24 hrs of photoperiod prior to grading
Heliothis virescens = experiment: Insecticidal activity against tobacco budworm assessed per larva

SMILES	LC50 (Trichoplusia ni) [µg]	LC50 (Tetranychus urticae) [µg/mL]	LC50 (Spodoptera exigua) [µg]	LC50 (Myzus persicae) [µg/mL]	LC50 (Bemisia tabaci) [µg/mL]	LC50 (Aphis gossypii) [µg/mL]	LC50 (Heliothis virescens) [µg]
CO[C@@H]1[C@@H](OC)[C@H](C)O[C@@H](O[C@H]2C[C@H]3[C@@H]4C=C5C(=O)[C@H](C)[C@@H](O[C@H]6CC[C@H](N(C)C)[C@@H](C)O6)CCC[C@H](C6CCC6)OC(=O)C[C@H]5[C@@H]4C=C[C@@H]3C2)[C@@H]1OC [21-DESETHYL-21-CYCLOBUTYLSPINOSYNS A]	0.124	> 50	>1	> 50	55 (≈ 72.6 µM)	3 (≈ 3.96 µM)	0.013
CCC[C@H]1CCC[C@H](O[C@H]2CC[C@H](N(C)C)[C@@H](C)O2)[C@@H](C)C(=O)C2=C[C@@H]3[C@@H](C=C[C@@H]4C[C@@H](O[C@@H]5O[C@@H](C)[C@H](OC)[C@@H](OC)[C@H]5OC)C[C@@H]34)[C@@H]2CC(=O)O1 [21-DESETHYL-21-N-PROPYLSPINOSYN A]	0.004	< 50	0.031	> 50	> 50	27.3 (≈ 36.6 µM)	0.025
CO[C@@H]1[C@@H](OC)[C@H](C)O[C@@H](O[C@H]2C[C@H]3[C@@H]4C=C5C(=O)[C@H](C)[C@@H](O[C@H]6CC[C@H](N(C)C)[C@@H](C)O6)CCC[C@H](C)OC(=O)C[C@H]5[C@@H]4C=C[C@@H]3C2)[C@@H]1OC [SPINOSYN E]		10 (≈ 13.9 µM)		> 50	3.9 (≈ 5.43 µM)	> 50	
CC[C@H]1CCC[C@H](O[C@H]2CC[C@H](N(C)C)[C@@H](C)O2)[C@@H](C)C(=O)C2=C[C@@H]3[C@@H](C=C(C)[C@@H]4C[C@@H](O[C@@H]5O[C@@H](C)[C@H](OC)[C@@H](OC)[C@H]5OC)C[C@@H]34)[C@@H]2CC(=O)O1 [SPINOSYN D]		19 (≈ 25.5 µM)		50 (≈ 67 µM)	1.7 (≈ 2.28 µM)	50 (≈ 67 µM)	
CO[C@@H]1[C@@H](OC)[C@H](C)O[C@@H](O[C@@H]2C[C@H]3CC[C@@H]4[C@@H](C=C5C(=O)[C@H](C)[C@@H](O[C@H]6CC[C@H](N(C)C)[C@@H](C)O6)CCC[C@H](C6CCC6)OC(=O)C[C@H]54)[C@@H]3C2)[C@@H]1OC [5,6-DIHYDRO-21-DESETHYL-21-CYCLOBUTYLSPINOSYN A]	0.013		0.134	> 50	0.7 (≈ 0.921 µM)	1.7 (≈ 2.24 µM)	0.02
CO[C@@H]1[C@@H](OC)[C@H](C)O[C@@H](O[C@H]2C[C@H]3[C@@H]4C=C5C(=O)[C@H](C)[C@@H](O[C@H]6CC[C@H](N(C)C)[C@@H](C)O6)CCC[C@H](C6CC6)OC(=O)C[C@H]5[C@@H]4C=C[C@@H]3C2)[C@@H]1OC [21-DESETHYL-21-CYCLOPROPYLSPINOSYNS A]	0.157	> 50	1	> 50	> 50	46 (≈ 61.8 µM)	0.125
CO[C@@H]1[C@@H](OC)[C@H](C)O[C@@H](O[C@H]2C[C@H]3[C@@H]4C=C5C(=O)[C@H](C)[C@@H](O[C@H]6CC[C@H](N(C)C)[C@@H](C)O6)CCC[C@H](C6CCC6)OC(=O)C[C@H]5[C@@H]4C=C(C)[C@@H]3C2)[C@@H]1OC	0.01		0.385	> 50	13.5 (≈ 17.5 µM)	15 (≈ 19.4 µM)	0.016
CO[C@@H]1[C@@H](OC)[C@H](C)O[C@@H](O[C@H]2C[C@H]3[C@@H]4C=C5C(=O)[C@H](C)[C@@H](O[C@H]6CC[C@H](N(C)C)[C@@H](C)O6)CCC[C@H](C(C)C)OC(=O)C[C@H]5[C@@H]4C=C[C@@H]3C2)[C@@H]1OC [21-DESETHYL-21-ISOPROPYLSPINOSYN A]	0.022		0.123				0.02
CC[C@H]1CCC[C@H](O[C@H]2CC[C@H](N(C)C)[C@@H](C)O2)[C@@H](C)C(=O)C2=C[C@@H]3[C@@H](C=C[C@@H]4C[C@@H](O[C@@H]5O[C@@H](C)[C@H](OC)[C@@H](OC)[C@H]5OC)C[C@@H]34)[C@@H]2CC(=O)O1 [SPINOSYN A]	0.03	5.3 (≈ 7.24 µM)	0.63	50 (≈ 68.3 µM)	20 (≈ 27.3 µM)	65 (≈ 88.8 µM)	0.03
